Measurements as given in patent publication EP0123217A1, “1-(4-(4-(Fluoralkylmethylthio or sulfinyl or sulfinyl-)phenoxy)phenyl)-1,3,5-triazine-2,4,6(1H-3H,5H)triones, process for their preparation and their use as agents against coccidiosis” (BAYER AG, priority 1983, dated 1984).
Structures can show the parent of a compound that is named as a salt.

How the values were obtained:
E. acervulina = assay: Coccidiosis in chicks, minimum effective dose (oocyst excretion, clinical symptoms, mortality); assay type: in vivo, Eimeria acervulina
E. maxima = assay: as above; assay type: in vivo, Eimeria maxima
E. tenella = assay: as above; assay type: in vivo, Eimeria tenella
E. falciformis = assay: Coccidiosis in mice, minimum effective dose (oocyst excretion, clinical symptoms, mortality); assay type: in vivo, Eimeria falciformis; details: for minimal effective dose: Eimeria falciformis, mice (15 g), infected with 10,000 sporulated oocysts, treated on days 1, 2, 3, 6, 7 and 8 after infection, read-out: wirksame Mindestdosierung E. falciformis
Text: Die coccidiostatische Aktivität von Verbindungen, die für die Verbindungen gemäß der Erfindung repräsentativ sind, wird in Tabelle 1 veranschaulicht, wo Eimeria tenella (Blinddarm-Coccidiose/Hühner), Eimeria acervulina und Eimeria maxima (Dünndarm-Coccidiose von Hühnern) als Beispiele der Aktivität im Falle der Coddidiose bei Geflügel genannt sind, während Eimeria falciformus (Coccidiose/Mäuse) als Coccidium bei Säugetieren angegeben ist.
Die Behandlung der Infektion mit Eimeria falciformis bei Mäusen, die als Beispiel der Coccidiose bei Säugetieren erwähnt ist, fand am ersten, zweiten, dritten, sechsten, siebten und achten Tag nach der Infektion statt. Die Infektion erfolgte mit.10,000 sporulierten Oozysten pro Maus (Gewicht 15 g). Im Falle der unbehandelten Vergleichstiere fanden massive Ausscheidung von Oozysten, blutiger Durchfall und 30 % Sterblichkeit der Tiere, die der Infektion zuzuschreiben waren, vom siebten Tage nach der Infektion an statt.
Als wirksam wurden diejenigen Dosen angesehen, die die Ausscheidung von Oozysten und/oder klinische Symptome der Coccidiose einschließlich der Mortalität vollständig oder in hohem Maße verhüteten.

[1] = chicks 9 to 11 days old, infected with 4000 sporulated oocysts, compound given from 3 days before to 8 days after infection

SMILES: CCCc1ncc(C[n+]2ccccc2C)c(N)n1 [A, 1[(4-Amino-2-propyl-5-pyrimidinyl)-methyl]-2-picoliniumchloridhydrochlorid, reference compound]
- wirksame Mindestdosierung E. acervulina (E. acervulina; [1]): 125 ppm
- wirksame Mindestdosierung E. maxima (E. maxima; [1]): 125 ppm
- wirksame Mindestdosierung E. tenella (E. tenella; [1]): 125 ppm
- minimal effective dose (E. falciformis): 500 mg/kg

SMILES: CCC1(C2OC(C3OC(O)(CO)C(C)CC3C)CC2C)CCC(C2(C)CCC3(CC(O)C(C)C(C(C)C(OC)C(C)C(=O)O)O3)O2)O1 (centres unmarked) [M, reference compound]
- wirksame Mindestdosierung E. acervulina (E. acervulina; in vivo): 50 ppm
- wirksame Mindestdosierung E. maxima (E. maxima; in vivo): 50 ppm
- wirksame Mindestdosierung E. tenella (E. tenella; in vivo): 75 ppm
- wirksame Mindestdosierung E. falciformis (E. falciformis; in vivo): 250 mg/kg

SMILES: Cn1c(=O)[nH]c(=O)n(-c2cc(Cl)c(Oc3ccc(SCC(F)(F)F)cc3)c(Cl)c2)c1=O [[drawing] r3]
- wirksame Mindestdosierung E. acervulina (E. acervulina; [1]): 25 ppm
- wirksame Mindestdosierung E. maxima (E. maxima; [1]): 25 ppm
- wirksame Mindestdosierung E. tenella (E. tenella; [1]): 50 ppm
- minimal effective dose (E. falciformis): 1 mg/kg

SMILES: COc1cc(-n2c(=O)[nH]c(=O)n(C)c2=O)ccc1Oc1ccc(SCC(F)(F)F)cc1 [[drawing] r4]
- wirksame Mindestdosierung E. acervulina (E. acervulina; [1]): 50 ppm
- wirksame Mindestdosierung E. maxima (E. maxima; [1]): 50 ppm
- wirksame Mindestdosierung E. tenella (E. tenella; [1]): 50 ppm
- minimal effective dose (E. falciformis): 25 mg/kg

SMILES: Cn1c(=O)[nH]c(=O)n(-c2cc(Cl)c(Oc3ccc(S(=O)(=O)CC(F)(F)F)cc3)c(Cl)c2)c1=O [[drawing] r5]
- wirksame Mindestdosierung E. acervulina (E. acervulina; [1]): 10 ppm
- wirksame Mindestdosierung E. maxima (E. maxima; [1]): 10 ppm
- wirksame Mindestdosierung E. tenella (E. tenella; [1]): 10 ppm
- minimal effective dose (E. falciformis): 100 mg/kg
